Data: US6048853A, “1-arylphthalazine antagonists of excitatory amino acid receptors” (Bearsden Bio, Inc., priority 1996, dated 2000)
Read-outs that look alike come from different tables or passages of the source.

Experiments:
Mice = experiment: Subcutaneous Metrazol (scMET) Seizure Test; type: in vivo; conditions: dose 3 mg/kg; time 0.5 hr; Metrazol 90 mg/kg sc
Description: This test is to determine the extent of protection by a test compound in a seizure model. The method used is that of Chen et al. (Proc. Soc. Exp. Biol. Med., 87:334, 1954). Mice are randomly assigned to vehicle or treatment groups of 3-10 animals per group and then dosed accordingly. Metrazol (pentylenetetrazol) 90 mg/kg is administered subcutaneously (sc) at different time points (0.25, 0.5, 1, 2, 4 hr) after the treatment or control groups. The mice individually housed in clear runs and observed for the presence or absence of clonic seizure activity (>5 s duration) for 30 min after metrazol dosing. A compound is considered active if no seizure is observed. Data is analyzed using aquantal measure (protection/number tested).
The results of this assay using compounds prepared as described in Examples 49 and 50 are shown below in Table 3.

Male NIH Swiss mice = experiment: Maximum Electro Shock (MES) Seizure Test; type: in vivo
Description: This test is to determine the extent of protection by a test compound in a seizure model. This model is described by Rogawski et al. (Epilepsy Research, 15:179-184, 1993). Male NIH Swiss mice (25-30 g) were injected ip with the test drug. […] Animals failing to show tonic hind limb extension were scored as protected. Compounds may be selected which are active in this model.
The results of this assay using compounds prepared as described in Examples 49, 50 and 102 are shown below in Table 2.

rat [1] = conditions: compared with NBQX; cited from earlier work
rat [2] = conditions: cited from earlier work

Compound: Nc1ccc(-c2nncc3cc4c(cc23)OCO4)cc1 [Example 49, 1-(4-Aminophenyl)-6,7-methylendioxyphthalazine]
- scMET Score (protect./no. tested) (Mice): 1/5
- MES Score (protected/no. tested) (Male NIH Swiss mice; dose 3 mg/kg ip, time 0.5 hours): 1/1
- MES Score (protected/no. tested) (Male NIH Swiss mice; dose 15 mg/kg ip, time 2 hours): 2/4

Compound: Cc1nnc(-c2ccc(N)cc2)c2cc3c(cc12)OCO3 [Example 50, 4-(4-Aminophenyl)-1-methyl-6,7-methylenedioxyphthalazine]
- scMET Score (protect./no. tested) (Mice): 1/5
- MES Score (protected/no. tested) (Male NIH Swiss mice; dose 1 mg/kg ip, time 4 hours): 1/7

Compound: CC(=O)Nc1ccc(-c2nnc(C)c3cc4c(cc23)OCO4)cc1 [Example 102, 4-(4-acetylaminophenyl)-1-methyl-6,7-methylenedioxyphthalazine]
- MES Score (protected/no. tested) (Male NIH Swiss mice; dose 100 mg/kg ip, time 4 hours): 3/3

Compound: CC1=NN=C(c2ccc(N)cc2)c2cc3c(cc2C1)OCO3 [GYKI 52466]
- efficacy in global ischemia model (rat [1]): as effective as the glutamate site competitive antagonist NBQX
- reduction of cortical infarct volume (rat [2]; given continuously for 2 hours just after occlusion): 68%
- reduction of cortical infarct volume (rat [2]; given one hour after occlusion): 48%
